Earlier results in patent publication US6753298B2, “Agents for combating Neospora spec” (Bayer AG, priority 1997, dated 2004).

Tested on: Neospora
Conditions: experimentally infected mice; administered by drinking water

**Q.** For `Nc1ccc(S(=O)(=O)Nc2ncccn2)cc1` [sulphadiazine], which in-vivo efficacy is on record?
**A.** Its in-vivo efficacy is “effective only when the treatment was prophylactic”.
